Results published in patent US10195243B2, “Process of making wine from a whole grape bunch, process of making pomace juice and powder, and method of producing beverages on the basis of juice and powder from a grape bunch” (priority 2014, dated 2019).

Test system: Molt-4-luc leukemia
Details: positive control group
Protocol: The objective was to evaluate the anti-tumor efficacy of different compounds in leukemia model in Balb/c nude mice.
Female Balb/c nude mice, with a body weight of approximately 20 grams, were obtained from an approved vendor (Shanghai BK Laboratory Animal Co., LTD., Shanghai, China). Upon arrival, animals were assessed as to their general health by a member of a veterinary staff or authorized personnel. Animals were acclimated for at least three days (upon arrival at the experiment room) before being used for the study. Animals were housed in groups during acclimation and individually housed during in-life. […] Temperature and relative humidity were monitored daily. […]
The tumor cells were routinely subcultured twice weekly. The cells growing in an exponential growth phase were harvested and counted for tumor inoculation. […]
Mice were randomly assigned to 16 groups (vehicle control, positive control, and 14 testing article groups) based on the body weight. […] Whole body and metastatic bioluminescence were measured and recorded.
The inoculated mice were weighted and intraperitoneally injected luciferin at 150 mg/kg. […] The bioluminescence of the whole animal body, including primary and metastatic tumors, was measured and images are recorded.
Bioluminescence (BL) of the whole animal body, including primary and metastatic tumors, was measured and images were recorded using a fixed intensity scale. […]

SMILES: O=P1(N(CCCl)CCCl)NCCCO1 (centres unmarked) [Cyclophosphamide]
- mice died (day 111 after cell injection, the mouse showed bioluminescence signal): one
- outcome until day 150: died
